According to PubChem BioAssay (NCI):
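Cells were grown in 96-well plates and exposed to each compound for 48 hours at five concentrations; endpoints were interpolated linearly between bracketing concentrations, or set to the highest concentration if not reached. GI50 is the concentration that inhibits growth by half. TGI is the concentration that stops growth completely.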

How the values were obtained:
Test in all cases: NCI tumour cell line growth inhibition, 48 h
HCT-15 colon = test system: HCT-15 colon
HOP-62 NSCLC = test system: HOP-62 NSCLC
IGROV1 ovarian = test system: IGROV1 ovarian
K-562 leukemia = test system: K-562 leukemia
M14 melanoma = test system: M14 melanoma
MDA-MB-435 = test system: MDA-MB-435
NCI/ADR-RES ovarian = test system: NCI/ADR-RES ovarian
SF-295 CNS = test system: SF-295 CNS
SK-MEL-2 melanoma = test system: SK-MEL-2 melanoma
SR leukemia = test system: SR leukemia

Structure (SMILES) | GI50 (HCT-15 colon) [µM] | TGI (HCT-15 colon) [µM] | GI50 (HOP-62 NSCLC) [µM] | TGI (HOP-62 NSCLC) [µM] | GI50 (IGROV1 ovarian) [µM] | TGI (IGROV1 ovarian) [µM] | GI50 (K-562 leukemia) [µM] | TGI (K-562 leukemia) [µM] | GI50 (M14 melanoma) [µM] | TGI (M14 melanoma) [µM] | GI50 (MDA-MB-435) [µM] | TGI (MDA-MB-435) [µM] | GI50 (NCI/ADR-RES ovarian) [µM] | TGI (NCI/ADR-RES ovarian) [µM] | GI50 (SF-295 CNS) [µM] | TGI (SF-295 CNS) [µM] | GI50 (SK-MEL-2 melanoma) [µM] | TGI (SK-MEL-2 melanoma) [µM] | GI50 (SR leukemia) [µM] | TGI (SR leukemia) [µM]
Cc1cc(C#Cc2ccc(C(C)(C)C)cc2)ccc1-n1c(/C=C/c2ccc(O)cc2O)nc2ccccc2c1=O | 2.74 | 10.2 | 5.88 | 20.5 | 7.48 | 26.8 | 3.28 | 14.1 | 5.91 | 25.6 | 3.08 | 12.3 | 3.17 | 13.4 | 3.83 | 16.5 | 3.52 | 13.4 | 2.45 | 6.49
COC(=O)c1cncc(/C=C/c2c(C)cc(O)cc2C)c1 | 11.1 | > 25 | 9.82 | > 20.5 | > 19.8 | > 25 | 2.32 | > 19 | 8.69 | 24.6 | 3.42 | 11.7 | 7.3 | > 25 | > 19.1 | > 25 | 8.31 | 22.1 | 2.67 | > 25
COc1cc(/C=C/C(=O)c2cccc(-n3cc(-c4ccc(Cl)cc4)[nH]c3=O)c2)cc(OC)c1OC | 3.85 | 10.3 | 23.6 | 57.3 | 4.68 | 19 | 3.69 | > 100 | 4.36 | 18.3 | 3.63 | > 100 | 2.36 | 7.3 | 24.3 | > 100 | 3.44 | 12.5 | 3.03 | > 100
CCC1(O)C(=O)OCc2c1cc1n(c2=O)Cc2cc3c(NC(=O)CN)cccc3nc2-1 (stereo not given) | 5.22 | > 100 | 0.0847 | 0.622 | 3.9 | 73.4 | 1.07 | > 100 | 0.532 | 8.73 | 5.4 | > 70 | 0.296 | 1.51 | 0.368 | 28 | 9.74 | 41.1 | 0.0262 | 0.183
COc1cc2nc(-c3cc(F)ccc3O)nc(N[C@@H]3CNC[C@H]3C(C)(C)O)c2cc1OC | 1.79 | 3.46 | 1.26 | 2.76 | 1.47 | 3.43 | 1.6 | 3.94 | 1.87 | 3.47 | 1.65 | 3.03 | 2.31 | 6.09 | 1.98 | 4.14 | 1.59 | 3.12 | 1.27 | 3.62
COC(=O)c1cc2c(cc1Cl)SC1=NN(C)C(N(C)C)N1S2(=O)=O (stereo not given) | > 100 | > 100 | > 100 | > 100 | > 100 | > 100 | > 100 | > 100 | > 100 | > 100 | > 100 | > 100 | > 100 | > 100 | > 100 | > 100 | > 100 | > 100 | > 100 | > 100
